Experimental data published in patent US20250288561A1, “NEZULCITINIB FOR DELIVERY BY NEBULIZED ORAL INHALATION” (THERAVANCE BIOPHARMA R&D IP, LLC, priority 2022, published 2025).

Legend:
[1] = Earlier phase 1 clinical trial, nebulized inhalation: plasma pharmacokinetics; type: in vivo, human; conditions: for maximal plasma exposure, fold lower than the protein-adjusted JAK IC50: inhaled
Method: (§1) Compound 1 was evaluated in a phase 1 clinical trial and dosed in humans through nebulized inhalation at 1 mg, 3 mg, and 10 mg for up to 7 days. […] The pharmacokinetics of inhaled compound 1 are consistent with low plasma exposures after inhaled administration. […] Additionally, absolute NK cell counts were evaluated after multiple-dosing to assess the potential for systemic pharmacologic effects associated with JAK inhibition by compound 1. […] The lack of reduction in NK cell counts is also consistent with the lack of systemic JAK inhibition. […] Other systemically mediated hematological changes associated with JAK inhibition, including neutrophil and hemoglobin reductions as well as lipid changes, were not observed with inhaled administration of compound 1.
(§2) The selected dose of 3 mg in the present study was consistent with the dose in a recently completed Phase 2 study. In addition, the 3 mg dose ensured adequate characterization of the nezulcitinib PK profile. Dose levels up to 9 mg of nezulcitinib were also evaluated (Administration D2). This dose level was within the range of doses tested previously (up to 10 mg of nezulcitinib) in healthy participants and those with COVID-19 in previous clinical studies.

[2] = Earlier phase 1 clinical trial: safety, tolerability, hematological and lipid changes; type: in vivo, human
Method: as §1, §2

[3] = tested on: subjects infected with COVID; assay: Phase 2 clinical study in subjects infected with COVID: efficacy; type: in vivo, human; conditions: for time to recovery, median: vs placebo 11; for 28-day all-cause mortality, HR / time to recovery, HR: vs placebo
Method: Compound 1 has been studied in a phase 2 clinical study in subjects infected with COVID.
Importantly, in a post-hoc analysis of subjects with baseline CRP (n=201), in subjects with CRP <150 mg/L (n=171), there was an improvement in those treated with compound 1 when compared to placebo in: • 28-day all-cause mortality (total number of deaths: 1 vs 9, HR: 0.097, p=0.009). • time to recovery (median: 10 vs. 11 days, HR: 1.48, p=0.02).
In subjects with CRP >150 mg/L (n=30), there was no difference in time to recovery or 28-day all-cause mortality between those treated with compound 1 or placebo.

JAK1 = JAK1 (Homo sapiens, UniProt P23458); assay: JAK enzyme inhibition; type: biochemical
JAK2 = JAK2 (Homo sapiens, UniProt O60674); assay: JAK enzyme inhibition; type: biochemical
JAK3 = molecular target: T1, JAK3 (Homo sapiens, UniProt P52333); assay: JAK enzyme inhibition; type: biochemical
T1 sequence (P52333 1-1124): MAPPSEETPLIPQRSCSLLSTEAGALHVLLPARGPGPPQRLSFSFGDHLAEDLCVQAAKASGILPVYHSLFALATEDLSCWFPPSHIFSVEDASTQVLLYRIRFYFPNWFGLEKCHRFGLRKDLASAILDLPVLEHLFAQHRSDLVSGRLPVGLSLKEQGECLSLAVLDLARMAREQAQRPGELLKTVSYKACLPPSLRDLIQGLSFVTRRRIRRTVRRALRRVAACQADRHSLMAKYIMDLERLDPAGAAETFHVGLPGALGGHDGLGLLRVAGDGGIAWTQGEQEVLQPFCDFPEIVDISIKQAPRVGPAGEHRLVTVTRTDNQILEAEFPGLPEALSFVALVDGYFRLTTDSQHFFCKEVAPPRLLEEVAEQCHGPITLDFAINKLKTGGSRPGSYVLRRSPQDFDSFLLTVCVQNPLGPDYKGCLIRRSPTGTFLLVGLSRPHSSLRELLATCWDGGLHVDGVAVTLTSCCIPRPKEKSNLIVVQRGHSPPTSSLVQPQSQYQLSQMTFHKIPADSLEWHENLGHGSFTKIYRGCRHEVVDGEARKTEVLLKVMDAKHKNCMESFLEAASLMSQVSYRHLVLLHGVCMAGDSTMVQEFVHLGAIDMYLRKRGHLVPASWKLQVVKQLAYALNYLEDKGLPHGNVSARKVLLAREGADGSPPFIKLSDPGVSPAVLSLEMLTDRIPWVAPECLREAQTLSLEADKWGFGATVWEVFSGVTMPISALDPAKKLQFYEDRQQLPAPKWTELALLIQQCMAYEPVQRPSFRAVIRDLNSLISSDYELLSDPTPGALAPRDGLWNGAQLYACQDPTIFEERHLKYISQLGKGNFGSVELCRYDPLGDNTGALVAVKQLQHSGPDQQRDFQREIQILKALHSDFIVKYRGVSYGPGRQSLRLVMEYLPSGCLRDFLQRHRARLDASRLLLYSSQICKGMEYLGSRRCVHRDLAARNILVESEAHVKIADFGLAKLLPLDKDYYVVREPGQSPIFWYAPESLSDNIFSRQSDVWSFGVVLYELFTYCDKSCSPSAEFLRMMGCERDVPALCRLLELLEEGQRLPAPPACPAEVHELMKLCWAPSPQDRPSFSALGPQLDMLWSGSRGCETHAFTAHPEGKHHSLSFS

TYK2 = TYK2 (Homo sapiens, UniProt P29597); assay: JAK enzyme inhibition; type: biochemical
IFNγ signaling = assay: Inhibition of cytokine signaling; type: cell-based

Sequence of JAK1 (P23458 whole entry): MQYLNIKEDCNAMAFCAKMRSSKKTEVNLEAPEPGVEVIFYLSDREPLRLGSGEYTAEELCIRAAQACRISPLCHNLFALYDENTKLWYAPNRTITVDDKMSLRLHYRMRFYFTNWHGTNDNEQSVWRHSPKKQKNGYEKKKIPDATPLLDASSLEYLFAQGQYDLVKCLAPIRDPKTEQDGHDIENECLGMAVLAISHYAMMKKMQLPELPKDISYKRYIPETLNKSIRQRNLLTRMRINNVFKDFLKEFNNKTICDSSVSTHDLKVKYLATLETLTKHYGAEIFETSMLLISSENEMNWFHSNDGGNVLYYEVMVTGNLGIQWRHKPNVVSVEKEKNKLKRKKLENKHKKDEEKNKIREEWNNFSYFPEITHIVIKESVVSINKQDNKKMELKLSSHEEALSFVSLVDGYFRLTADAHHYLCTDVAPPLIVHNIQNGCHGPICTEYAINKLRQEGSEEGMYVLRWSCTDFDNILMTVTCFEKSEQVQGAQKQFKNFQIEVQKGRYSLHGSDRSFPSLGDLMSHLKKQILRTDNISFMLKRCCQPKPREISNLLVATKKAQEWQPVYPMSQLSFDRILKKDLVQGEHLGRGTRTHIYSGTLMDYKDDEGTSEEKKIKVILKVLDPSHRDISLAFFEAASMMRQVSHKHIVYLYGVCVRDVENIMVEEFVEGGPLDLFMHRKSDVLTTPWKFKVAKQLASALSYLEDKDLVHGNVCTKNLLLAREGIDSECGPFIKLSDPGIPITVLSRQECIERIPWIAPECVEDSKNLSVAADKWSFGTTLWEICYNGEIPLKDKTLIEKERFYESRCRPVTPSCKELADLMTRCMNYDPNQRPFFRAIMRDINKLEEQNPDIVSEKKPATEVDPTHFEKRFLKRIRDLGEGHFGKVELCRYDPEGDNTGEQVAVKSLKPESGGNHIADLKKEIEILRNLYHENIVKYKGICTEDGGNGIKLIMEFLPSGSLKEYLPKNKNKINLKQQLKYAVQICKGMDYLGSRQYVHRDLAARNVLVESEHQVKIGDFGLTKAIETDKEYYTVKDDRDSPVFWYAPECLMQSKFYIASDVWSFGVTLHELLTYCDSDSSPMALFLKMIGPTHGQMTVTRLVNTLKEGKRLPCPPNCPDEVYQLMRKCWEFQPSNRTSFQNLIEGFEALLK
Sequence of TYK2 (P29597 whole entry): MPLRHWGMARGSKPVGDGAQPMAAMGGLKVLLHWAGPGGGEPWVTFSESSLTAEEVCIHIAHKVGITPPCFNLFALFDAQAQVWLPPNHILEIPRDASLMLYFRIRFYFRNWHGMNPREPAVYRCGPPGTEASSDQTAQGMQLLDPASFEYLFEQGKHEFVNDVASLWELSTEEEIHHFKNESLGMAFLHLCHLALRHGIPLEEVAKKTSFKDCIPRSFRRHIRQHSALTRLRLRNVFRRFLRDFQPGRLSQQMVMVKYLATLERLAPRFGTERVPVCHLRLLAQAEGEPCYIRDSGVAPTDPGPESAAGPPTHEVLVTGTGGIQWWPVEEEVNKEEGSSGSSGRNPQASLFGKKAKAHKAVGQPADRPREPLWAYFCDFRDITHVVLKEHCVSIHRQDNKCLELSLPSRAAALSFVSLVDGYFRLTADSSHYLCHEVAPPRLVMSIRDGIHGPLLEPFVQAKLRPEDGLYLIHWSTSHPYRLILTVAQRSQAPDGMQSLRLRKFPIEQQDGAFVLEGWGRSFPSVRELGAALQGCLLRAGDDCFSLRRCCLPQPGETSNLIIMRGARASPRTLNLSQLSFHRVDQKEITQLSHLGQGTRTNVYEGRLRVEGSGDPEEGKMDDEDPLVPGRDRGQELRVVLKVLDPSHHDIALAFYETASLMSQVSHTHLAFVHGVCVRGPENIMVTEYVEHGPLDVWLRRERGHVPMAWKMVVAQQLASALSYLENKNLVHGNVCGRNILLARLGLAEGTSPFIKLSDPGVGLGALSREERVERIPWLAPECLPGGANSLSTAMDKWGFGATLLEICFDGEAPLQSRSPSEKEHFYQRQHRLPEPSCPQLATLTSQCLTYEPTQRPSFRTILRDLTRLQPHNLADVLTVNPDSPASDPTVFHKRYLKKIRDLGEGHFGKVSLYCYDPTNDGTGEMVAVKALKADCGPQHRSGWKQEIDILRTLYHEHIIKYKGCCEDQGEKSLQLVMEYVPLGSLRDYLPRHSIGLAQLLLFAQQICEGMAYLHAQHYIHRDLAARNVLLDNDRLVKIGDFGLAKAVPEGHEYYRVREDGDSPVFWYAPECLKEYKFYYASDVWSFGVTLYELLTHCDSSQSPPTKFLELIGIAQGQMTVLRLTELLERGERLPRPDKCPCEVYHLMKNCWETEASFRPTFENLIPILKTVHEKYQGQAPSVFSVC
Sequence of JAK2 (O60674 whole entry): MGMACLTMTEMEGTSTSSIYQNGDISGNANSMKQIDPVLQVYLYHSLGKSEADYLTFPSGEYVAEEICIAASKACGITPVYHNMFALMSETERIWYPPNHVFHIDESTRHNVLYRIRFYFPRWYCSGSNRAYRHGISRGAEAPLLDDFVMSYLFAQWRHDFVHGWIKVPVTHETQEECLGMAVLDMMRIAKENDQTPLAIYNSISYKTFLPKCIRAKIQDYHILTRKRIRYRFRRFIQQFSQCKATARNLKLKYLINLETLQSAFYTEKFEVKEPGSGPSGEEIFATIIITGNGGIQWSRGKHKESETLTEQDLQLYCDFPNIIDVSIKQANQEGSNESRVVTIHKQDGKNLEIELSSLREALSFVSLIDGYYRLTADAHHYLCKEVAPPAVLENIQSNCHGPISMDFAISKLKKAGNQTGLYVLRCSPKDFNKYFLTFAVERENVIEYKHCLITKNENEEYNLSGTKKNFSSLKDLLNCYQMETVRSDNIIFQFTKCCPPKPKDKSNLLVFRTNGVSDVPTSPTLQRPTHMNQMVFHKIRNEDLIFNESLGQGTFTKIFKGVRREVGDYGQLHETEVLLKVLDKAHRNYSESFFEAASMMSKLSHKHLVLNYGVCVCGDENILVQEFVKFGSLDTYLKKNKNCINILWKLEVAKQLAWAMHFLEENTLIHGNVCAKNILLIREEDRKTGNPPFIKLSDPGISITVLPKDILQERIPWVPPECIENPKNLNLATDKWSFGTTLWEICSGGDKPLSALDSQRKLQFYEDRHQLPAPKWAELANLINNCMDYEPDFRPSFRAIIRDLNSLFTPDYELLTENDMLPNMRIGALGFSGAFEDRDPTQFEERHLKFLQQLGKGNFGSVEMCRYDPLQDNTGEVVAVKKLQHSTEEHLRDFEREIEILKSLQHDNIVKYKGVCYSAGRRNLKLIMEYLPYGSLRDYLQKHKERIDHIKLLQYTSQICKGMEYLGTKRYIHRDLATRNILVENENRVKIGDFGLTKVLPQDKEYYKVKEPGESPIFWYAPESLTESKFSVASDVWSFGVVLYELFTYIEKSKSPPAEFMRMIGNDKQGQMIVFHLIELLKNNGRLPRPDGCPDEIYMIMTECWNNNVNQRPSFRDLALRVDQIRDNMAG

## CCc1cc(O)ccc1-c1ccc2c(-c3nc4c([nH]3)CN(C(C)C)[C@H](C(=O)N3CC(N(C)C)C3)C4)n[nH]c2c1 [Compound 1, (S)-(3-(dimethylamino)azetidin-1-yl)(2-(6-(2-ethyl-4-hydroxyphenyl)-1H-indazol-3-yl)-5-isopropyl-4,5,6,7-tetrahydro-3H-imidazo[4,5-c]pyridin-6-yl)methanone]
[1]; dose level 3 mg
  maximal plasma exposure, fold lower than the protein-adjusted JAK IC50: about 20 fold
[1]; dose level 10 mg
  maximal plasma exposure, fold lower than the protein-adjusted JAK IC50: about 7 fold
[1]; nebulized inhalation at 1 mg, 3 mg and 10 mg for up to 7 days
  plasma Cmax relative to the binding-corrected JAK IC50: well under the binding-corrected JAK IC50
[1]; single and multiple doses, 1 to 10 mg
  dose proportionality of systemic exposure (AUC0-24) and Cmax: increased in a dose proportional manner
[2]; inhaled administration
  neutrophil and hemoglobin reductions, lipid changes: not observed
[2]; single and multiple doses of 1, 3, and 10 mg, healthy adult participants
  safety and tolerability: safe and well tolerated
[3]; ITT
  change from baseline at Day 7 in SaO2/FiO2 ratio, 8-point Clinical Status scale categories, proportion alive and respiratory failure-free at Day 28, vs placebo: no difference
[3]; ITT, vs placebo 21, p=0.61
  RFDs (respiratory failure-free days) from randomization through Day 28, median: 21 days
[3]; all subjects
  time to recovery, median: 10 days
[3]; all subjects, vs placebo 13
  28-day all-cause mortality, total number of deaths: 6
[3]; all subjects, p=0.08
  28-day all-cause mortality, HR: 0.42
[3]; all subjects, p=0.12
  time to recovery, HR: 1.27
[3]; post-hoc, baseline CRP <150 mg/L
  time to recovery, median: 10 days
[3]; post-hoc, baseline CRP <150 mg/L, p=0.009
  28-day all-cause mortality, HR: 0.097
[3]; post-hoc, baseline CRP <150 mg/L, p=0.02
  time to recovery, HR: 1.48
[3]; post-hoc, subjects with baseline CRP <150 mg/L (n=171), vs placebo 9
  28-day all-cause mortality, total number of deaths: 1
[3]; subjects with CRP >150 mg/L (n=30)
  time to recovery or 28-day all-cause mortality vs placebo: no difference
JAK1
  inhibition of JAK1: potent inhibitor
JAK2
  inhibition of JAK2: potent inhibitor
JAK3
  inhibition of JAK3: potent inhibitor
TYK2
  inhibition of TYK2: potent inhibitor
IFNγ signaling
  inhibition of IFNγ signaling: shown to inhibit
